Data published in publication PMC2518627 (Analytical Biochemistry, 2007).

Assays:
[1] = molecular target: NAADP binding protein from sea urchin (L. pictus) egg homogenate; assay: NAADP radioreceptor binding assay (displacement of [32P]NAADP); parameters: species or system Lytechinus pictus; conditions: for IC50: read-out: IC50 (displacement of [32P]NAADP binding), 1% sea urchin egg homogenate, 25 °C
Procedure: First, 25 μl of test sample was added to each tube. Second, 125 μl of 1% (v/v) sea urchin egg homogenate in intracellular medium was added and allowed to incubate for 10 min at 25 °C. […] The tubes were then incubated at room temperature for a further 10 min at 25 °C. Note that the order of addition is important to maximize the sensitivity of the assay. […] Washing was carried out three times using 1 ml of a buffer containing 20 mM Hepes and 500 mM potassium acetate (pH 7.4).
Radioactivity was determined by placing the filter circles in a scintillation vial containing 10 ml H2O, followed by Cerenkov scintillation counting.
Filter papers were wrapped in cling film and then placed in a cassette to expose a storage phosphor screen (GE Healthcare) for 1 to 4 h. The screen was then scanned using a Typhoon 9400 scanner (GE Healthcare) at a resolution of 100 μm. The resulting image was then analyzed using ImageQuant (GE Healthcare).
Samples are then filtered using a cell harvester. […] Sample concentrations may then be determined from the standard curve.

pancreatic acinar cells = assay: NAADP levels in pancreatic acinar cells preincubated with BAPTA-AM; assay type: cell-based, CD1 mice
Procedure: Cells may be prepared in any suitable manner; gametes, isolated cells, chopped tissue, and cells in culture all have been used successfully. Cells were then exposed to agonist, and at the appropriate time points the reaction in cells was stopped by the addition of 0.75 M ice-cold HClO4 added as an equal volume of 1.5 M solution. Sonication (Jencons Vibracell at amplitude 60) was carried out to disrupt the cells, which were then placed on ice for 15 min. The denatured protein was pelleted by centrifugation at 9000g for 10 min and stored at –80 °C for later analysis. Supernatant was neutralized with 1 M KHCO3, added as an equal volume of 2 M solution, and vortexed. The resulting KClO4 precipitate was removed by centifugation at 9000g for 10 min. Samples were stored at –80 °C for later analysis.
Pancreatic acinar cells were prepared as described previously. Briefly, pancreata were excised from 8- to 10-week-old male CD1 mice and were finely chopped before incubation with 200 U/ml collagenase for 15 min at 37 °C. The digested tissue was then washed and resuspended to 10 ml with buffer of the following composition: 140 mM NaCl, 4.7 mM KCl, 1 mM MgCl2, 1 mM CaCl2, 10 mM Hepes, and 10 mM glucose (pH 7.4). Protease inhibitor cocktail tablets (EDTA free, Roche Diagnostics, UK), one tablet per 50 ml, were added to this solution before use. The suspension was triturated, and supernatant that contained dispersed cells was collected into a new tube. After centrifugation at 800g for 3 min at 4 °C, the supernatant was discarded and the cell pellet was resuspended for further trituration and centrifugation. The resulting supernatant was discarded, and the cells were kept in buffer supplemented with 1 mM CaCl2 at room temperature on a rocking board for 30 min before use. Prior to use, the cells were centrifuged at 800g for 1 min at 4 °C. The cells were suspended in the above buffer without the addition of protease inhibitors. Pancreatic acinar cells were aliquoted into tubes. […]

[2] = Stability of nucleotides under different pH conditions (HPLC); assay type: physicochemical; conditions: 1 mM, 6 h
Procedure: All high-performance liquid chromatography (HPLC) was carried out on an anion exchange resin (AGMP1, Bio-Rad, USA), packed in 150 × 2.5-mm Omnifit columns, using a concave upward gradient of trifluoroacetic acid (TFA), delivered by a Waters 600e pump, as described previously. Detection was performed by a UV detector (Waters 2487, UK) at 254 nm.
Samples were then neutralized with their base equivalence of either Tris base (for acidic solutions) or Hepes acid (for basic solutions) as applicable. Samples were analyzed by HPLC as described above, with elution times being determined from standard runs with known compounds.

human NAD kinase = system: human NAD kinase; parameters: method as in PMID 11594753; conditions: cited from earlier work
[3] = maximum concentration tested 2 mM
[4] = 100 pM CCK after preincubation with 20 μM BAPTA-AM
[5] = maximum concentration tested 100 μM

Molecule | Displacement of NAADP at the maximum concentration tested [1, 5] | IC50 [1] [µM] | also measured
Nc1ncnc2c1ncn2[C@@H]1O[C@H](COP(=O)(O)OP(=O)(O)OC[C@H]2O[C@@H]([n+]3cccc(C(=O)O)c3)[C@H](O)[C@@H]2O)[C@@H](O)[C@H]1O [NAAD, nicotinic acid adenine dinucleotide] | – | 51 | –
NC(=O)C1=CN([C@@H]2O[C@H](COP(=O)(O)OP(=O)(O)OC[C@H]3O[C@@H](n4cnc5c(N)ncnc54)[C@H](O)[C@@H]3O)[C@@H](O)[C@H]2O)C=CC1 [NADH] | – | – | Displacement of NAADP at the maximum concentration tested [1, 3]: failed to displace
cholecystokinin [CCK] | – | – | Change in NAADP levels (pancreatic acinar cells; [4]): continuous increase; Duration of increase in NAADP levels (pancreatic acinar cells; [4]): at least 20 min
NC(=O)C1=CN([C@@H]2O[C@H](COP(=O)(O)OP(=O)(O)OC[C@H]3O[C@@H](n4cnc5c(N)ncnc54)[C@H](OP(=O)(O)O)[C@@H]3O)[C@@H](O)[C@H]2O)C=CC1 [NADPH] | – | 6.3 | Stability at pH 7.2 ([2]; 50 mM Hepes (pH 7.2)): remained stable; Stability at pH 0.88 ([2]; 0.75 M HClO4 (pH 0.88)): became unstable; Stability at pH 8.6 ([2]; 0.75 M HClO4/1 M KHCO3 (pH 8.6)): became unstable; Stability at pH 11 ([2]; 1 M K2CO3 (pH 11)): similarly unstable; Stability at pH 9.1 ([2]; 1 M KHCO3 (pH 9.1)): became unstable
NC(=O)c1ccc[n+]([C@@H]2O[C@H](COP(=O)([O-])OP(=O)(O)OC[C@H]3O[C@@H](n4cnc5c(N)ncnc54)[C@H](O)[C@@H]3O)[C@@H](O)[C@H]2O)c1 [NAD, nicotinamide adenine dinucleotide] | – | – | Km (human NAD kinase): 800 µM; Displacement of NAADP at the maximum concentration tested [1, 3]: failed to displace
CC(=O)OCOC(=O)CN(CC(=O)OCOC(C)=O)c1ccccc1OCCOc1ccccc1N(CC(=O)OCOC(C)=O)CC(=O)OCOC(C)=O [BAPTA-AM, 1,2-bis(2-aminophenoxy)ethane-N,N,N′,N′-tetraacetic acid tetrakis (acetoxymethyl) ester] | – | – | Change in NAADP levels (pancreatic acinar cells; 20 μM BAPTA-AM alone, followed by control buffer): no change
nicotinic acid adenine dinucleotide phosphate [NAADP] | – | 0.00054 | –
nicotinamide adenine dinucleotide phosphate [NADP] | – | 21 | –
N=c1c2ncn3c2ncn1[C@@H]1O[C@H](COP(=O)(O)OP(=O)(O)OC[C@H]2O[C@@H]3[C@H](O)[C@@H]2O)[C@@H](O)[C@H]1O [cADPR, cyclic ADP ribose] | – | 2.5 | –

Now from value to molecule, other results behind:

Displacement of NAADP at the maximum concentration tested [1, 5] | Molecule | IC50 [1] [µM] | also measured
failed to displace | O=C(O)c1cccnc1 [nicotinic acid] | – | –
failed to displace | Nc1ncnc2c1ncn2[C@@H]1O[C@H](COP(=O)(O)OP(=O)(O)OC[C@H]2OC(O)[C@H](O)[C@@H]2O)[C@@H](O)[C@H]1O (stereo partly shown) [ADPR] | – | –
failed to displace | Nc1ncnc2c1ncn2[C@@H]1O[C@H](COP(=O)(O)O)[C@@H](O)[C@H]1O [AMP] | – | –
failed to displace | O=P(O)(O)O[C@@H]1[C@H](O)[C@H](O)[C@@H](OP(=O)(O)O)[C@H](OP(=O)(O)O)[C@H]1O [IP3, D-myo-inositol 1,4,5-trisphosphate] | – | –
failed to displace | Nc1ncnc2c1ncn2[C@@H]1O[C@H](COP(=O)(O)OP(=O)(O)O)[C@@H](O)[C@H]1O [ADP] | – | –
failed to displace | Nc1ncnc2c1ncn2[C@@H]1O[C@H](COP(=O)(O)OP(=O)(O)OP(=O)(O)O)[C@@H](O)[C@H]1O [ATP] | – | –
